How the values were obtained:
[1] = system: HCT116 MTAP-deleted cells; assay: Cell viability assay (CellTiter-Glo, 7 days), HCT116 MTAP-deleted; details: Homo sapiens, HCT-116, 168 h
[2] = system: SDMA signal (PRMT5 inhibition) in HCT116 MTAP-deleted cells; assay: Symmetric di-methyl arginine image-based high content screen assay (SDMA assay), HCT116 MTAP-deleted; type: cell-based; details: SDMA assay; for EC50: Homo sapiens, HCT-116, 72 h, 3 days of treatment, cell line not given, taken as HCT116 MTAP-deleted, read-out: EC50 (SDMA assay); for EC50 selectivity (SDMA assay): taken as HCT116 WT versus MTAP-deleted
Outline: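 Read-out: per-cell mean SDMA immunofluorescence (Alexa Fluor 488 secondary), cells segmented by DAPI on a high-content imager. Compound exposure in HCT116 MTAP-deleted cells lasted until fixation on Day 3; overnight 4° C primary anti-SDMA antibody staining.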

EC50 [2] [nM]	EC50 selectivity (SDMA assay) [2]	SMILES	CC50 [1] [nM]
< 1	31	Cn1ncc2c(N)nc3ccc(C(=O)N(Cc4ccc(C(F)(F)F)cc4F)N4CCOCC4=O)cc3c21 [Example 50, 4-amino-N-[[2-fluoro-4-(trifluoromethyl)phenyl]methyl]-1-methyl-N-(3-oxomorpholin-4-yl)pyrazolo[4,3-c]quinoline-8-carboxamide]	< 100
1 to 5	260	CN(C(=O)C1(C)CC1)N(Cc1ccc(C(F)(F)F)cn1)C(=O)c1ccc2nc(N)c3cnn(C)c3c2c1 [Example 51, 4-amino-N′,1-dimethyl-N′-(1-methylcyclopropanecarbonyl)-N-[[5-(trifluoromethyl)-2-pyridyl]methyl]pyrazolo[4,3-c]quinoline-8-carbohydrazide]	< 100
1 to 5	174	CN(C(=O)C1(C(F)(F)F)CC1)N(Cc1ccc(C(F)(F)F)cn1)C(=O)c1ccc2nc(N)c3cnn(C)c3c2c1 [Example 52, 4-amino-N′, 1-dimethyl-N′-[1-(trifluoromethyl)cyclopropanecarbonyl]-N-[[5-(trifluoromethyl)-2-pyridyl]methyl]pyrazolo[4,3-c]quinoline-8-carbohydrazide]	100 to 1000
1 to 5	338	Cn1ncc2c(N)nc3cc(F)c(C(=O)N(Cc4ccccn4)N4CCCC4=O)cc3c21 [Example 53, 4-amino-7-fluoro-1-methyl-N-(2-oxopyrrolidin-1-yl)-N-(pyridin-2-ylmethyl)-1H-pyrazolo[4,3-c]quinoline-8-carboxamide]	100 to 1000
> 5	339	Cn1ncc2c(N)nc3ccc(C(=O)N(Cc4ccccn4)N4CCCC4=O)cc3c21 [Example 54, 4-amino-1-methyl-N-(2-oxopyrrolidin-1-yl)-N-(pyridin-2-ylmethyl)-1H-pyrazolo[4,3-c]quinoline-8-carboxamide]	100 to 1000
< 1	168	Cn1ncc2c(N)nc3cc(F)c(C(=O)N(Cc4ccccc4F)N4CCCC4=O)cc3c21 [Example 55, 4-amino-7-fluoro-N-(2-fluorobenzyl)-1-methyl-N-(2-oxopyrrolidin-1-yl)-1H-pyrazolo[4,3-c]quinoline-8-carboxamide]	< 100
< 1	195	Cn1ncc2c(N)nc3ccc(C(=O)N(Cc4ccccc4F)N4CCCC4=O)cc3c21 [Example 56, 4-amino-N-(2-fluorobenzyl)-1-methyl-N-(2-oxopyrrolidin-1-yl)-1H-pyrazolo[4,3-c]quinoline-8-carboxamide]	< 100
1 to 5	108	Cn1ncc2c(N)nc3cc(F)c(C(=O)N(Cc4ccc(C(F)(F)F)nc4)N4CCCC4=O)cc3c21 [Example 57, 4-amino-7-fluoro-1-methyl-N-(2-oxopyrrolidin-1-yl)-N-((6-(trifluoromethyl)pyridin-3-yl)methyl)-1H-pyrazolo[4,3-c]quinoline-8-carboxamide]	< 100
1 to 5	126	CN1CCN(N(Cc2ccc(C(F)(F)F)cn2)C(=O)c2ccc3nc(N)c4cnn(C)c4c3c2)CC1 [Example 58, 4-amino-1-methyl-N-(4-methylpiperazin-1-yl)-N-((5-(trifluoromethyl)pyridin-2-yl)methyl)-1H-pyrazolo[4,3-c]quinoline-8-carboxamide]	100 to 1000
< 1	53	CN1CCN(N(Cc2ccc(C(F)(F)F)cn2)C(=O)c2cc3c(cc2F)nc(N)c2cnn(C)c23)CC1 [Example 59, 4-amino-7-fluoro-1-methyl-N-(4-methylpiperazin-1-yl)-N-((5-(trifluoromethyl)pyridin-2-yl)methyl)-1H-pyrazolo[4,3-c]quinoline-8-carboxamide]	< 100
1 to 5	58	Cn1ncc2c(N)nc3cc(F)c(C(=O)N(Cc4ccc(C(F)(F)F)nn4)N4CCCC4=O)cc3c21 [Example 60, 4-amino-7-fluoro-1-methyl-N-(2-oxopyrrolidin-1-yl)-N-((6-(trifluoromethyl)pyridazin-3-yl)methyl)-1H-pyrazolo[4,3-c]quinoline-8-carboxamide]	< 100
1 to 5	124	CC(=O)N(C)N(Cc1ccc(C(F)(F)F)nn1)C(=O)c1ccc2nc(N)c3cnn(C)c3c2c1 [Example 61, N′-acetyl-4-amino-N′,1-dimethyl-N-((6-(trifluoromethyl)pyridazin-3-yl)methyl)-1H-pyrazolo[4,3-c]quinoline-8-carbohydrazide]	100 to 1000
< 1	94	Cn1ncc2c(N)nc3ccc(C(=O)N(Cc4ccc(C(F)(F)F)cn4)N4CCOCC4=O)cc3c21 [Example 62, 4-amino-1-methyl-N-(3-oxomorpholin-4-yl)-N-[[5-(trifluoromethyl)-2-pyridyl]methyl]pyrazolo[4,3-c]quinoline-8-carboxamide]	< 100
1 to 5	70	Cn1ncc2c(N)nc3cc(Cl)c(C(=O)N(Cc4ccc(C(F)(F)F)cn4)N4CCOCC4=O)cc3c21 [Example 63, 4-amino-7-chloro-1-methyl-N-(3-oxomorpholin-4-yl)-N-[[5-(trifluoromethyl)-2-pyridyl]methyl]pyrazolo[4,3-c]quinoline-8-carboxamide]	< 100
< 1	15	Cn1ncc2c(N)nc3ccc(C(=O)N(Cc4c(F)cc(C(F)(F)F)cc4F)N4CCCCC4=O)cc3c21 [Example 64, 4-amino-N-[[2,6-difluoro-4-(trifluoromethyl)phenyl]methyl]-1-methyl-N-(2-oxo-1-piperidyl)pyrazolo[4,3-c]quinoline-8-carboxamide]	< 100
< 1	149	Cn1ncc2c(N)nc3ccc(C(=O)N(Cc4nc5ccccc5s4)N4CCCC4=O)cc3c21 [Example 65, 4-amino-N-(1,3-benzothiazol-2-ylmethyl)-1-methyl-N-(2-oxopyrrolidin-1-yl)pyrazolo[4,3-c]quinoline-8-carboxamide]	< 100
> 5	281	Cn1ncc2c(N)nc3ccc(C(=O)N(Cc4ccc(C(C)(C)O)nc4)N4CCCCC4=O)cc3c21 [Example 66, 4-amino-N-[[6-(1-hydroxy-1-methyl-ethyl)-3-pyridyl]methyl]-1-methyl-N-(2-oxo-1-piperidyl)pyrazolo[4,3-c]quinoline-8-carboxamide]	100 to 1000
< 1	25	COc1cc(C(F)(F)F)ccc1CN(C(=O)c1ccc2nc(N)c3cnn(C)c3c2c1)N1CCCCC1=O [Example 67, 4-amino-N-[[2-methoxy-4-(trifluoromethyl)phenyl]methyl]-1-methyl-N-(2-oxo-1-piperidyl)pyrazolo[4,3-c]quinoline-8-carboxamide]	< 100
1 to 5	304	CC(=O)N(C)N(Cc1ccc(C(F)(F)F)cn1)C(=O)c1ccc2nc(N)c3ccccc3c2c1 [Example 68, N′-acetyl-6-amino-N′-methyl-N-[[5-(trifluoromethyl)-2-pyridyl]methyl]phenanthridine-2-carbohydrazide]	100 to 1000
1 to 5	142	CC(=O)N(C)N(Cc1ccc(C(F)(F)F)cn1)C(=O)c1ccc2nc(N)c3sncc3c2c1 [Example 69, N′-acetyl-4-amino-N′-methyl-N-[[5-(trifluoromethyl)-2-pyridyl]methyl]isothiazolo[5,4-c]quinoline-8-carbohydrazide]	100 to 1000
1 to 5	11	CC(=O)N(C)N(Cc1ccc(C(F)(F)F)cn1)C(=O)c1cc2c3c(c(N)nc2cc1F)COC3 [Example 70, N′-acetyl-4-amino-7-fluoro-N′-methyl-N-[[5-(trifluoromethyl)-2-pyridyl]methyl]-1,3-dihydrofuro[3,4-c]quinoline-8-carbohydrazide]	< 100
1 to 5	59	CC(=O)N(C)N(Cc1ccc(C(F)(F)F)cn1)C(=O)c1ccc2nc(N)c3c(c2c1)CO[C@@H]3C [Example 71, (3R)—N′-acetyl-4-amino-N′,3-dimethyl-N-[[5-(trifluoromethyl)-2-pyridyl]methyl]-1,3-dihydrofuro[3,4-c]quinoline-8-carbohydrazide]	< 100
1 to 5	142	CC(=O)N(C)N(Cc1ccc(C(F)(F)F)cn1)C(=O)c1ccc2nc(N)c3cnccc3c2c1 [Example 72, N′-acetyl-5-amino-N′-methyl-N-((5-(trifluoromethyl)pyridin-2-yl)methyl)benzo[c][2,7]naphthyridine-9-carbohydrazide]	100 to 1000
> 5	39	CN(C)N(Cc1ccc(C(F)(F)F)cn1)C(=O)c1ccc2nc(N)c3cscc3c2c1 [Example 73, 4-amino-N′,N′-dimethyl-N-((5-(trifluoromethyl)pyridin-2-yl)methyl)thieno[3,4-c]quinoline-8-carbohydrazide]	100 to 1000
> 5	>71	CC(c1ccc(C(F)(F)F)cn1)N(C(=O)c1ccc2nc(N)c3cscc3c2c1)N(C)C (stereo not drawn) [Example 74, 4-amino-N′,N′-dimethyl-N-(1-(5-(trifluoromethyl)pyridin-2-yl)ethyl)thieno[3,4-c]quinoline-8-carbohydrazide]	100 to 1000

— patent US20240254118A1, “PRMT5 INHIBITORS AND USES THEREOF” (Gilead Sciences, Inc., priority 2022, published 2024)
